According to the supplement of paper PMC10307832:

Key:
Assay in all cases: relative viability (nuclei count vs DMSO), 5 days (fraction); higher = more cells survive
Adavosertib + Bortezomib = compound: C=CCn1c(=O)c2cnc(Nc3ccc(N4CCN(C)CC4)cc3)nc2n1-c1cccc(C(C)(C)O)n1 [Adavosertib] + CC(C)C[C@H](NC(=O)[C@H](Cc1ccccc1)NC(=O)c1cnccn1)B(O)O [Bortezomib] (partner 0.002 µM)
Summary of the method: (§1)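 One day after seeding in 1536-well plates, lung cancer cell lines were dosed by pin tool. Dosing was either single-drug or a fixed anchor-drug dose plus five library-drug doses (not always all listed) in √10 steps. After 5 days, nuclei were stained in one fix-and-stain step and counted on 4× images, and relative viability is the nuclei count of treated wells over that of vehicle wells, given as the median of duplicate plates.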

Adavosertib + Lapatinib = compound: C=CCn1c(=O)c2cnc(Nc3ccc(N4CCN(C)CC4)cc3)nc2n1-c1cccc(C(C)(C)O)n1 [Adavosertib] + CS(=O)(=O)CCNCc1ccc(-c2ccc3ncnc(Nc4ccc(OCc5cccc(F)c5)c(Cl)c4)c3c2)o1 [Lapatinib] (partner 2 µM)
Summary of the method: as §1

Adavosertib + Linsitinib = compound: C=CCn1c(=O)c2cnc(Nc3ccc(N4CCN(C)CC4)cc3)nc2n1-c1cccc(C(C)(C)O)n1 [Adavosertib] + C[C@]1(O)C[C@@H](c2nc(-c3ccc4ccc(-c5ccccc5)nc4c3)c3c(N)nccn32)C1 [Linsitinib] (partner 1 µM)
Summary of the method: as §1

Adavosertib + Tozasertib = compound: C=CCn1c(=O)c2cnc(Nc3ccc(N4CCN(C)CC4)cc3)nc2n1-c1cccc(C(C)(C)O)n1 [Adavosertib] + Cc1cc(Nc2cc(N3CCN(C)CC3)nc(Sc3ccc(NC(=O)C4CC4)cc3)n2)n[nH]1 [Tozasertib] (partner 0.1 µM)
Summary of the method: as §1

Adavosertib + Olaparib = compound: C=CCn1c(=O)c2cnc(Nc3ccc(N4CCN(C)CC4)cc3)nc2n1-c1cccc(C(C)(C)O)n1 [Adavosertib] + O=C(c1cc(Cc2n[nH]c(=O)c3ccccc23)ccc1F)N1CCN(C(=O)C2CC2)CC1 [Olaparib] (partner 8 µM)
Summary of the method: as §1

COR-L 105
relative viability (Adavosertib + Bortezomib; first compound 0.01 µM): 0.984 | relative viability (Adavosertib + Bortezomib; first compound 0.03162 µM): 0.719 | relative viability (Adavosertib + Bortezomib; first compound 0.1 µM): 0.855 | relative viability (Adavosertib + Bortezomib; first compound 0.3162 µM): 0.627 | relative viability (Adavosertib + Lapatinib; first compound 0.01 µM): 0.361 | relative viability (Adavosertib + Lapatinib; first compound 0.03162 µM): 0.428 | relative viability (Adavosertib + Lapatinib; first compound 0.1 µM): 0.373 | relative viability (Adavosertib + Lapatinib; first compound 0.3162 µM): 0.349 | relative viability (Adavosertib + Linsitinib; first compound 0.01 µM): 0.818 | relative viability (Adavosertib + Linsitinib; first compound 0.03162 µM): 1.13 | relative viability (Adavosertib + Linsitinib; first compound 0.1 µM): 0.976 | relative viability (Adavosertib + Linsitinib; first compound 0.3162 µM): 0.906 | relative viability (Adavosertib + Tozasertib; first compound 0.01 µM): 0.353 | relative viability (Adavosertib + Tozasertib; first compound 0.03162 µM): 0.374 | relative viability (Adavosertib + Tozasertib; first compound 0.1 µM): 0.385 | relative viability (Adavosertib + Tozasertib; first compound 0.3162 µM): 0.319 | relative viability (Adavosertib + Olaparib; first compound 0.01 µM): 0.657 | relative viability (Adavosertib + Olaparib; first compound 0.03162 µM): 0.689 | relative viability (Adavosertib + Olaparib; first compound 0.1 µM): 0.76 | relative viability (Adavosertib + Olaparib; first compound 0.3162 µM): 0.65

BEN
relative viability (Adavosertib + Bortezomib; first compound 0.01 µM): 0.807 | relative viability (Adavosertib + Bortezomib; first compound 0.03162 µM): 0.986 | relative viability (Adavosertib + Bortezomib; first compound 0.1 µM): 0.811 | relative viability (Adavosertib + Bortezomib; first compound 0.3162 µM): 0.851 | relative viability (Adavosertib + Lapatinib; first compound 0.01 µM): 0.751 | relative viability (Adavosertib + Lapatinib; first compound 0.03162 µM): 0.728 | relative viability (Adavosertib + Lapatinib; first compound 0.1 µM): 0.801 | relative viability (Adavosertib + Lapatinib; first compound 0.3162 µM): 0.948 | relative viability (Adavosertib + Linsitinib; first compound 0.01 µM): 0.97 | relative viability (Adavosertib + Linsitinib; first compound 0.03162 µM): 0.886 | relative viability (Adavosertib + Linsitinib; first compound 0.1 µM): 0.921 | relative viability (Adavosertib + Linsitinib; first compound 0.3162 µM): 1.06 | relative viability (Adavosertib + Tozasertib; first compound 0.01 µM): 0.598 | relative viability (Adavosertib + Tozasertib; first compound 0.03162 µM): 0.474 | relative viability (Adavosertib + Tozasertib; first compound 0.1 µM): 0.494 | relative viability (Adavosertib + Tozasertib; first compound 0.3162 µM): 0.629 | relative viability (Adavosertib + Olaparib; first compound 0.01 µM): 1.07 | relative viability (Adavosertib + Olaparib; first compound 0.03162 µM): 1.01 | relative viability (Adavosertib + Olaparib; first compound 0.1 µM): 1.12 | relative viability (Adavosertib + Olaparib; first compound 0.3162 µM): 1.05

NCI-H322M
relative viability (Adavosertib + Bortezomib; first compound 0.03162 µM): 1.17 | relative viability (Adavosertib + Bortezomib; first compound 0.1 µM): 1.2 | relative viability (Adavosertib + Bortezomib; first compound 0.3162 µM): 0.869 | relative viability (Adavosertib + Lapatinib; first compound 0.03162 µM): 0.558 | relative viability (Adavosertib + Lapatinib; first compound 0.1 µM): 0.505 | relative viability (Adavosertib + Lapatinib; first compound 0.3162 µM): 0.435 | relative viability (Adavosertib + Linsitinib; first compound 0.03162 µM): 0.789 | relative viability (Adavosertib + Linsitinib; first compound 0.1 µM): 0.982 | relative viability (Adavosertib + Linsitinib; first compound 0.3162 µM): 0.535 | relative viability (Adavosertib + Tozasertib; first compound 0.01 µM): 0.481 | relative viability (Adavosertib + Tozasertib; first compound 0.03162 µM): 0.453 | relative viability (Adavosertib + Tozasertib; first compound 0.1 µM): 0.436 | relative viability (Adavosertib + Tozasertib; first compound 0.3162 µM): 0.342 | relative viability (Adavosertib + Olaparib; first compound 0.01 µM): 0.771 | relative viability (Adavosertib + Olaparib; first compound 0.03162 µM): 0.801 | relative viability (Adavosertib + Olaparib; first compound 0.1 µM): 0.699 | relative viability (Adavosertib + Olaparib; first compound 0.3162 µM): 0.425

HCC-366
relative viability (Adavosertib + Bortezomib; first compound 0.01 µM): 1.03 | relative viability (Adavosertib + Bortezomib; first compound 0.03162 µM): 1.05 | relative viability (Adavosertib + Bortezomib; first compound 0.1 µM): 1.1 | relative viability (Adavosertib + Bortezomib; first compound 0.3162 µM): 1.05 | relative viability (Adavosertib + Lapatinib; first compound 0.01 µM): 1.09 | relative viability (Adavosertib + Lapatinib; first compound 0.03162 µM): 1.07 | relative viability (Adavosertib + Lapatinib; first compound 0.1 µM): 1.08 | relative viability (Adavosertib + Lapatinib; first compound 0.3162 µM): 1.13 | relative viability (Adavosertib + Linsitinib; first compound 0.01 µM): 0.62 | relative viability (Adavosertib + Linsitinib; first compound 0.03162 µM): 0.802 | relative viability (Adavosertib + Linsitinib; first compound 0.1 µM): 0.659 | relative viability (Adavosertib + Linsitinib; first compound 0.3162 µM): 0.774 | relative viability (Adavosertib + Tozasertib; first compound 0.01 µM): 0.137 | relative viability (Adavosertib + Tozasertib; first compound 0.03162 µM): 0.132 | relative viability (Adavosertib + Tozasertib; first compound 0.1 µM): 0.145 | relative viability (Adavosertib + Tozasertib; first compound 0.3162 µM): 0.169 | relative viability (Adavosertib + Olaparib; first compound 0.01 µM): 0.356 | relative viability (Adavosertib + Olaparib; first compound 0.03162 µM): 0.376 | relative viability (Adavosertib + Olaparib; first compound 0.1 µM): 0.317 | relative viability (Adavosertib + Olaparib; first compound 0.3162 µM): 0.32
